Reference: US10501493B2, “Broad spectrum antibiotics” (priority 2011, dated 2019)
≈ marks a conversion by molar mass, not a printed value.

What was measured:
[1] = test system: S. aureus NCTC-8325 SpsB(P295); test: In vitro antimicrobial activity, MIC by broth micro-dilution; format: cell-based; details: Staphylococcus aureus, NCTC8325, read-out: MIC class, S. aureus NCTC-8325 SpsB(P295)
Description: (§1) In vitro antimicrobial activity of each compound was determined by measuring minimal inhibitor concentrations (MICs) using the broth micro-dilution technique as approved by the Clinical and Laboratory Standards Institute (CLSI). The microbiological panel examined contains a number of bacterial species including E. coli MG1655, P. aeruginosa, S. aureus, and S. epidermidis. In addition, the panel includes previously described pseudo-isogenic strains of these four species (P. A. Smith et al. Chem Biol 2010, 1223-1231), in which a specific proline residue in SPase (called LepB in Gram-negative organisms an SpsB in Gram-positive organisms) has been mutated to a different amino acid. The resulting strains have increased susceptibility to the arylomycin class of antibiotics. Analysis of the strains lacking this proline residue will increases the dynamic range of the assay, and comparison of the sensitivities of the isogenic pairs provides ongoing confirmation that the activity gained through derivatization is specific to the inhibition of SPase. Briefly, bacterial streaks were grown on Mueller Hinton Agar II (Difco™) with or without 5% lysed horse blood for a period of 24 hours at either 35° C. or 28° C. Bacterial colonies were suspended in cation adjusted Mueller Hinton broth and diluted to a final concentration of 1*10^7 colony forming units/ml. Two-fold serial dilutions of each compound were arrayed into 96-well plates (100 μl final volume per well) and 5 ul of the bacterial suspension will be added. […] MICs were periodically checked plating serial dilutions of MIC wells and quantitatively determining viable colonies.

E. coli ATCC 25922 = test: as above; format: cell-based; details: Escherichia coli, ATCC25922; read-out: MIC class, E. coli ATCC 25922
Description: as §1

S. epidermidis RP62A = test: as above; format: cell-based; details: Staphylococcus epidermidis, RP62A; read-out: MIC class, S. epidermidis RP62A
Description: as §1

S. pneumoniae D39 = test: as above; format: cell-based; details: Streptococcus pneumoniae, D39; read-out: MIC class, S. pneumoniae D39
Description: as §1

E. coli SPase = molecular target: T1, E. coli SPase (Escherichia coli, UniProt P00803); test: Enzymatic fluorogenic substrate cleavage assay for IC50; format: biochemical
T1 construct: Full length His-tagged E. coli SPase proteins were expressed in E. coli BL21(DE3); His-tag; made in house; host or cells: E. coli BL21(DE3)
Description: (§2) Full length His-tagged E. coli SPase proteins were expressed in E. coli BL21(DE3) containing the plasmid pET23-lepB, P. A. Smith et al. Chem Biol 2010, 1223-1231. Briefly, saturated overnight cultures grown in 20 ml of Luria-Bertani medium supplemented with ampicillin were subcultures into 1.5 L of Luria-Bertani, and shaken at 37° C. until an optical density at 600 nm of 0.4-0.5 was achieved. Protein expression was induced with Isopropyl β-D-1-thiogalactopyranoside (ITPG) at a final concentration of […], and purified using nickel affinity chromatography. Full length His-tagged S. aureus SPase protein was expressed similarly from E. coli BL21(DE3) containing the plasmid pCDF1-SaSpsB or pCDF1-SaSpsB(P29S) and purified similarly to the E. coli protein with the following exceptions. SPase protein was solubilized using 300 mM NaCl, 20 mM Tris pH 8.06, 5 mM Imidazole, 10% glycerol, 1% Triton X-100, prior to purification in Ni-NTA Superflow resin and resin bound protein was washed in a similar buffer containing 1% Elugent in place of Triton X-100 prior to protein eluted in wash buffer supplemented with 300 mM imidazole. Protein purify was judged to exceed 95% by visual inspection of SDS-PAGE followed by Comassie staining. All protein concentrations were determined by BCA assay.
(§3) In addition to the equilibrium binding assays, compound activity is also characterized by measuring inhibition of E. coli and S. aureus substrate cleavage reactions using fluorogenic peptides developed at RQx Pharmaceuticals. Briefly, two fluorogenic peptide substrates (decanoyl-LSSPA Y^NO2 A ? ADK^abzPD (SEQ ID NO: 1) and decanyol-LTPTAY^NO2 A ? ASKK^abzDD (SEQ ID NO: 2)) have been synthesized, where abz is the fluorescence donor 2-aminobenzamide, YNO2 is the fluorescence acceptor 3-nitrotyrosine, and the cleavage site is indicated with an arrow. These substrates are processed with a second order rate constant (Kcat/KM) of 10^5 M^−1s^−1 for E. coli and S. aureus SPase enzymes, and cleavage results in a greater than 10-fold increase in fluorescence signal (excitation at 314 nm, emission at 416 nm) as measured using a SpectraMax M2 fluorescence microplate reader. Two-folder serial dilutions of compound are prepared in cleavage reaction buffer consisting of: 50 mM Tris-HCl pH 8.0, 100 mM NaCl, 10% glycerol, 1 mM EDTA, detergent (1% NP-40 or 0.1% Elugent™ for E. coli LepB or S. aureus SpsB respectively) and either 2.5 nM of E. coli SPase enzyme or 10 nM of S. aureus SPase enzyme. 40 μl aliquots of the compound dilution series in the protein/buffer solution is transferred to black 384-well polypropylene plates, and 10 μl of fluorogenic peptide at a concentration of 100 μM is added to initiate the reaction. The increase in fluorescence, corresponding to substrate cleavage, is monitored continuously at room temperature for 30 minutes and initial reaction rates are calculated based in the linear increase in fluorescence from the initial 30 minutes of the reaction. Reaction rates are plotted as a function of compound concentration, and IC50 values are determined nonlinear regression analysis (SoftMax® Pro v5.4) of the sigmoidal dose-response curve.

S. aureus SPase = molecular target: T2, S. aureus SPase (Staphylococcus aureus, UniProt P0A070); test: as above; format: biochemical
T2 construct: Full length His-tagged S. aureus SPase protein was expressed similarly; His-tag; made in house; host or cells: E. coli BL21(DE3)
Description: as §2, §3

S. aurues NCTC-8325 = test: In vitro antimicrobial activity, MIC by broth micro-dilution; format: cell-based, S. aureus; details: Staphylococcus aureus, NCTC8325, read-out: MIC class, S. aurues NCTC-8325
Description: as §1

[2] = test system: E. col ATCC 25922 LepB(P84L); test: as above; format: cell-based, E. coli; details: Escherichia coli, ATCC25922, read-out: MIC class, E. col ATCC 25922 LepB(P84L)
Description: as §1

Compound	MIC [1] [µg/mL]	MIC (E. coli ATCC 25922) [µg/mL]	MIC (S. epidermidis RP62A) [µg/mL]	MIC (S. pneumoniae D39) [µg/mL]	IC50 (E. coli SPase) [µM]	IC50 (S. aureus SPase) [µM]	MIC (S. aurues NCTC-8325) [µg/mL]	MIC [2] [µg/mL]
CCCCCCCCCCCCCCCC(=O)N(C)C(CO)C(=O)N[C@H](C)C(=O)NCC(=O)N(C)[C@@H]1C(=O)N[C@@H](C)C(=O)NC(C(=O)NCC(=O)C(=O)N(C)C)Cc2ccc(O)c(c2)-c2cc1ccc2O (stereo partly shown) [Compound 59]	> 64	> 64	< 8	16 to 64 (≈ 16.1 to 64.4 µM)	< 1	1 to 10	> 64	16 to 64 (≈ 16.1 to 64.4 µM)
CCCCCCCCCCCCCCCC(=O)N(C)[C@H](CO)C(=O)N[C@H](C)C(=O)NCC(=O)N(C)[C@@H]1C(=O)N[C@@H](C)C(=O)N[C@H](C(=O)NCC(=O)NS(C)(=O)=O)Cc2ccc(O)c(c2)-c2cc1ccc2O [Compound 60]	> 64	> 64	< 8	< 8	< 1	1 to 10	> 64	< 8
CCCCCCCCCCCCCCCC(=O)N(C)[C@H](CO)C(=O)N[C@H](C)C(=O)NCC(=O)N(C)[C@@H]1C(=O)N[C@@H](C)C(=O)N[C@H](C(=O)NCCOC)Cc2ccc(O)c(c2)-c2cc1ccc2O [Compound 61]	> 64	> 64	> 64	< 8	1 to 10	> 10	> 64	16 to 64 (≈ 17.1 to 68.2 µM)
CCCCCCCCCCCCCCCC(=O)N(C)C(CO)C(=O)N[C@H](C)C(=O)NCC(=O)N(C)[C@@H]1C(=O)N[C@@H](C)C(=O)NC(C(=O)NCC(O)CO)Cc2ccc(O)c(c2)-c2cc1ccc2O (stereo partly shown) [Compound 62]	> 64	> 64	> 64	16 to 64 (≈ 16.8 to 67.1 µM)	1 to 10	> 10	> 64	16 to 64 (≈ 16.8 to 67.1 µM)
CCCCCCCCCCCCCCCC(=O)N(C)[C@H](CO)C(=O)N[C@H](C)C(=O)NCC(=O)N(C)[C@@H]1C(=O)N[C@@H](C)C(=O)N[C@H](C(=O)N[C@H](C)CO)Cc2ccc(O)c(c2)-c2cc1ccc2O [Compound 63]	> 64	> 64	16 to 64 (≈ 17.1 to 68.2 µM)	16 to 64 (≈ 17.1 to 68.2 µM)	> 10	> 10	> 64	> 64
CCCCCCCCCCCCCCCC(=O)N(C)[C@H](CO)C(=O)N[C@H](C)C(=O)NCC(=O)N(C)[C@@H]1C(=O)N[C@@H](C)C(=O)N[C@H](C(=O)NC[C@H](C)O)Cc2ccc(O)c(c2)-c2cc1ccc2O [Compound 64]	> 64	> 64	< 8	< 8	1 to 10	> 10	> 64	16 to 64 (≈ 17.1 to 68.2 µM)
CCCCCCCCCCCCCCCC(=O)N(C)[C@H](CO)C(=O)N[C@H](C)C(=O)NCC(=O)N(C)[C@@H]1C(=O)N[C@@H](C)C(=O)N[C@H](C(=O)NC[C@@H](C)O)Cc2ccc(O)c(c2)-c2cc1ccc2O [Compound 65]	> 64	> 64	< 8	16 to 64 (≈ 17.1 to 68.2 µM)	< 1	1 to 10	> 64	16 to 64 (≈ 17.1 to 68.2 µM)
CCCCCCCCCCCCCCCC(=O)N(C)[C@H](CO)C(=O)N[C@H](C)C(=O)NCC(=O)N(C)[C@@H]1C(=O)N[C@@H](C)C(=O)N[C@H](C(=O)N[C@@H](CO)C(C)C)Cc2ccc(O)c(c2)-c2cc1ccc2O [Compound 66]	> 64	> 64	16 to 64 (≈ 16.6 to 66.2 µM)	16 to 64 (≈ 16.6 to 66.2 µM)	1 to 10	> 10	> 64	16 to 64 (≈ 16.6 to 66.2 µM)
CCCCCCCCCCCCCCCC(=O)N(C)[C@H](CO)C(=O)N[C@H](C)C(=O)NCC(=O)N(C)[C@@H]1C(=O)N[C@@H](C)C(=O)N[C@H](C(=O)NC(CO)CO)Cc2ccc(O)c(c2)-c2cc1ccc2O [Compound 67]	> 64	> 64	16 to 64 (≈ 16.8 to 67.1 µM)	16 to 64 (≈ 16.8 to 67.1 µM)	> 10	> 10	> 64	16 to 64 (≈ 16.8 to 67.1 µM)
CCCCCCCCCCCCCCCC(=O)N(C)[C@H](CO)C(=O)N[C@H](C)C(=O)NCC(=O)N(C)[C@@H]1C(=O)N[C@@H](C)C(=O)N[C@H](C(=O)N[C@H](CO)C(C)O)Cc2ccc(O)c(c2)-c2cc1ccc2O (stereo partly shown) [Compound 68]	> 64	> 64	16 to 64 (≈ 16.5 to 66.1 µM)	16 to 64 (≈ 16.5 to 66.1 µM)	1 to 10	> 10	> 64	16 to 64 (≈ 16.5 to 66.1 µM)
CCCCCCCCCCCCCCCC(=O)N(C)[C@H](CO)C(=O)N[C@H](C)C(=O)NCC(=O)N(C)[C@@H]1C(=O)N[C@@H](C)C(=O)N[C@H](C(=O)N[C@H](CO)CCC)Cc2ccc(O)c(c2)-c2cc1ccc2O [Compound 69]	> 64	> 64	16 to 64 (≈ 16.6 to 66.2 µM)	16 to 64 (≈ 16.6 to 66.2 µM)	1 to 10	> 10	> 64	< 8
